Structures can show the parent of a compound that is named as a salt.
How the values were obtained:
[1] = test system: HFF cells (human foreskin fibroblasts); assay: Inhibition of mammalian cell replication in vitro; assay type: cell-based
[2] = test system: BGM cells (a continuous cell line of monkey origin); assay: Inhibition of mammalian cell replication in vitro; assay type: cell-based
Description: Concentrations of this ligand of 0.009 mM/L inhibited the growth of both BGM cells (a continuous cell line of monkey origin) and HFF cells (human foreskin fibroblasts).

[3] = Cytotoxicity study in AIDS antiviral screen (soluble-formazan assay); assay type: cell-based; conditions: human, T4 lymphocytes
Description: (§1) The antiviral efficacy of N,N′,N″-tris(5-t-butyl-2-hydroxy-benzyl)-1,4,7-triazacyclononane against the AIDS virus was evaluated employing published methodology (see, “New Soluble-Formazin Assay for HIV-1 Cytopathic Effects: Application to High Flux Screening of Synthetic and Natural Products for AIDS-Antiviral Activity,” J. Natl. Cancer Inst. 81:577-586, 1989).

AIDS virus = assay: Inhibition of AIDS virus replication (soluble-formazan assay for HIV-1 cytopathic effects); assay type: cell-based; conditions: Human immunodeficiency virus 1; read-out: EC50 (inhibition of the AIDS Virion)
Description: as §1

Pseudomonas aeruginosa = assay: Inhibition of bacterial replication in vitro (MIC); assay type: cell-based
Description: (§2) N,N′,N″-tris(dihydroxyphosphorylmethyl)-1,4,7-triazacyclononane was prepared as described in Example 1C in U.S. Pat. No. 5,236,695. Studies were performed to determine its ability to inhibit bacterial growth. For Streptococcus hemolyticus, Listeria monocytogenes, Enterobacter cloacae and Klebsiella pneumoniae the minimum inhibitory concentration was determined to be 0.15 mM/L. For Enterococcus fecalis, Pseudomonas aeruginosa and Acinobacter anitratus the minimum inhibitory concentration was determined to be 0.3 mM/L.

Klebsiella pneumoniae = assay: Inhibition of bacterial replication in vitro (MIC); assay type: cell-based
Description: as §2

Enterococcus fecalis = assay: Inhibition of bacterial replication in vitro (MIC); assay type: cell-based
Description: as §2

Listeria monocytogenes = assay: Inhibition of bacterial replication in vitro (MIC); assay type: cell-based
Description: as §2

[4] = test system: Streptococcus hemolyticus; assay: Inhibition of bacterial replication in vitro (MIC); assay type: cell-based
Description: as §2

Acinobacter anitratus = assay: Inhibition of bacterial replication in vitro (MIC); assay type: cell-based
Description: as §2

Enterobacter cloacae = assay: Inhibition of bacterial replication in vitro (MIC); assay type: cell-based
Description: as §2

[5] = Chemical antioxidant properties, coupled oxidation of carotene and linoleic acid; assay type: physicochemical
Description: Antioxidant properties of N,N′,N″-tri(dihydroxyphosphoryl methyl)-1,4,7-triazacyclononane were evaluated employing the coupled oxidation of carotene and linoleic acid, using the method described in “Phenolic Antioxidants of Dried Soybeans,” Hammerschmidt, P. A., Praat, D. E., 1978, Journal of Food Sciences, vol. 43, pp. 556-559.

Streptococcus Sobrinus = assay: Inhibition of cariogenic bacteria (MIC, RPMI medium); assay type: cell-based; conditions: read-out: minimum inhibitory concentration (MIC)
[6] = test system: mature, nonreplicating cultures of HFF (human foreskin fibroblasts); assay: Toxicity toward nonproliferating mammalian cells in vitro; assay type: cell-based; conditions: 0.3 mM, maintenance media, five-day period of observation
Trichophyton rubrum = assay: Inhibition of mycotic cell replication in vitro (MIC); assay type: cell-based
Description: (§3) N,N′,N″-tris(dihydroxyphosphorylmethyl)-1,4,7-triazacyclononane was prepared as described in Example 1C in U.S. Pat. No. 5,236,695. Studies were performed to determine its ability to inhibit growth of mycotic (fungal) organisms.
(§4) For Microsporum canis the minimum inhibitory concentration was 0.233 mM/L or less. For Candida albicans and Trichophyton rubrum the minimal inhibitory concentration was 2.33 mM/L. For Trichophyton mentagrophytes, Trichophyton tonsuras and Trichophyton violaceum the minimal inhibitory concentration was 23.3 mM/L.

Trichophyton tonsuras = assay: as above; assay type: cell-based
Description: as §3, §4

[7] = test system: Trichophyton mentagrophytes; assay: as above; assay type: cell-based
Description: as §3, §4

Trichophyton violaceum = assay: as above; assay type: cell-based
Description: as §3, §4

Candida albicans = assay: as above; assay type: cell-based
Description: as §3, §4

Microsporum canis = assay: as above; assay type: cell-based
Description: as §3, §4

Sprague Dawley rats = assay: Subacute toxicity, repeated intravenous doses in rats; assay type: in vivo; conditions: 0.05 millimoles per kg i.v. on 10 days
Excerpt: Ten male Sprague Dawley rats 29 days old and weighing between 73.4 and 87.8 grams at the beginning of the experiment were randomized, employing the block stratification method, into two groups consisting of five rats each. On each of days 1, 2, 3, 6, 7, 8, 9, 10, 13 and 14 of the experiment one set of rats received an intravenous dose of N,N′,N″-tri(dihydroxyphosphoryl methyl)-1,4,7-triazacyclononane (Example 1C in U.S. Pat. No. 5,236,695) equal to 0.05 millimoles per kg of initial body weight (experimental group) while the other group received an equivalent volume of normal saline solution. The weights of the animals were recorded three times per week and the animals were sacrificed on the 28th day, major organs removed and weighed and tissues removed for microscopic examination.

[8] = test system: 57 human cancer cell lines; assay: In vitro proliferation of 57 human cancer cell lines; assay type: cell-based; conditions: cell line groups compared
Description: The ability of N-methyl-N′,N″-bis(dihydroxyphorylmethyl)-1,4,7-triazacyclononane to inhibit proliferation of 57 human cancer cell lines in vitro was evaluated employing published methods as published in J. Natl. Cancer Inst., 83:757-766, 1991. The concentration of agent that caused 50% inhibition of cell replication relative to controls [Gl50] were determined. In one set of experiments the mean midpoint of Gl50 for all cell lines tested was (10)^−4.72 with a delta value of (10)^2.95 and a range of (10)^3.67.

underarm odor = assay: Inhibition of underarm odor in human subjects; assay type: in vivo
Excerpt: Human subjects applied a 30% aqueous solution of the neutral sodium salt of N,N′,N″-tri(dihydroxyphosphoryl methyl)-1,4,7-triazacyclononane in one axilla and a control aqueous solution in the other.

monocyte = assay: Monocyte penetration of Matrigel membranes; assay type: cell-based
Excerpt: (§5) Matrix metalloproteinase-2 (MMP-2) secreted by cells into growth media was separated by gel electrophoresis into its distinct band. […] Concentrations of less than 10 microM of sodium salt of N,N′,N″-tri(dihydroxyphosphoryl methyl)-1,4,7-triazacyclononane inhibited monocyte penetration of Matrigel membranes.

pure MMP-2 enzyme = pure MMP-2 enzyme (Homo sapiens, UniProt P08253); assay: Inhibition of pure MMP-2 enzyme; assay type: biochemical
pure MMP-2 enzyme, sequence (P08253 110-660): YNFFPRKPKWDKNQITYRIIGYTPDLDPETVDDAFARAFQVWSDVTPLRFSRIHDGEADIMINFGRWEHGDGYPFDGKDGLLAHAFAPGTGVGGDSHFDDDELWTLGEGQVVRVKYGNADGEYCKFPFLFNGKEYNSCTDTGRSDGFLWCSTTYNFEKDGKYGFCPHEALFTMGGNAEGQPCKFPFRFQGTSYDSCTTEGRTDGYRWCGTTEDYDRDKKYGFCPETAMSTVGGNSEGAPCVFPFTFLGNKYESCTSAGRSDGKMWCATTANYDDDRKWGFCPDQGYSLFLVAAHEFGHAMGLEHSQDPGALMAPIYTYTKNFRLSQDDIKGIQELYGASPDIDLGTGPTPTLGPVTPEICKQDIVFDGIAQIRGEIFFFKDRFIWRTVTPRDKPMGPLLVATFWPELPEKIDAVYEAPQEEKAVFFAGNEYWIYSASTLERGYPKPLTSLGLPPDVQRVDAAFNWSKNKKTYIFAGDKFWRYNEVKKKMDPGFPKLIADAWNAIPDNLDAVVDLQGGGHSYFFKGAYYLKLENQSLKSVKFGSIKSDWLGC

mice = assay: Acute intravenous toxicity in mice; assay type: in vivo; conditions: 4.0 mM/kg single intravenous dose
Description: (§6) This example illustrates the low in vivo toxicity of a representative ligand administer intravenously to mice.
(§7) This in vivo LD50 toxicity dose results in an instantaneous in vivo concentration which is orders of magnitude greater than the dose of this agent which inhibits mammalian cell replication in vitro (0.009 mM/L).

[9] = Acute intravenous toxicity in mice; assay type: in vivo; conditions: mouse, in vivo, 4 mM/kg, intravenous
Description: as §6, §7

[10] = molecular target: T1, Matrix metalloproteinase-2 (MMP-2) secreted by cells (Homo sapiens, UniProt P08253); assay: MMP-2 inhibition after gel electrophoresis, incubation in developing medium; assay type: biochemical; conditions: MMP-2 band after gel electrophoresis
T1 construct: Matrix metalloproteinase-2 (MMP-2) secreted by cells into growth media; endogenous in cells
T1 sequence (P08253 110-660, species assumed): as the sequence (P08253 110-660) above
Excerpt: as §5

[11] = test system: isolated working rat heart; assay: Ischemic/reperfused isolated working rat heart model
Description: Using the ischemic/reperfused isolated working rat heart model of Ferdinandy et al., Cardiovasc. […] Concentrations of this agent as high as 7.2 mM had no adverse effects on the heart either before or after hypoxia/reperfusion injury.

## O=C(O)CN(CCN(CC(=O)O)CC(=O)O)CCN(CC(=O)O)CC(=O)O [Diethylene triamine penta acetic acid, reference compound]
[1]
  concentration that inhibited HFF cell growth: 0.3 mM/L
[2]
  concentration that inhibited BGM cell growth: 0.075 mM/L

## O=C(O)CN1CCN(CC(=O)O)CCN(CC(=O)O)CC1 [Example 1.3.6.1, N,N′,N″-Tris(carboxymethyl)-1,4,7-triazacyclononane]
[1]
  concentration that inhibited HFF cell growth: 0.019 mM/L
[2]
  concentration that inhibited BGM cell growth: 0.009 mM/L

## CCOC(=O)CN1CCN(CC(=O)OCC)CCN(CC(=O)OCC)CC1 [Example 1.3.6.13, N,N′,N″-Tris(ethoxycarbonylmethyl)-1,4,7-triazacyclononane]
[1]
  concentration that inhibited HFF cell growth: 0.16 mM/L
[2]
  concentration that inhibited BGM cell growth: 0.04 mM/L

## CC(C)(C)c1ccc(O)c(CN2CCN(Cc3cc(C(C)(C)C)ccc3O)CCN(Cc3cc(C(C)(C)C)ccc3O)CC2)c1 [N,N′,N″-tris(5-t-butyl-2-hydroxy-benzyl)-1,4,7-triazacyclononane]
[3]
  IC50: 110 µM
AIDS virus
  EC50: 3 µM

## O=P(O)(O)CN1CCN(CP(=O)(O)O)CCN(CP(=O)(O)O)CC1 [N,N′,N″-tris(dihydroxyphosphorylmethyl)-1,4,7-triazacyclononane]
Pseudomonas aeruginosa
  minimum inhibitory concentration: 0.3 mM/L
Klebsiella pneumoniae
  minimum inhibitory concentration: 0.15 mM/L
Enterococcus fecalis
  minimum inhibitory concentration: 0.3 mM/L
Listeria monocytogenes
  minimum inhibitory concentration: 0.15 mM/L
[4]
  minimum inhibitory concentration: 0.15 mM/L
Acinobacter anitratus
  minimum inhibitory concentration: 0.3 mM/L
Enterobacter cloacae
  minimum inhibitory concentration: 0.15 mM/L
[5]
  antioxidant activity: antioxidant activity similar to the commonly used food antioxidant butylated hdryoxyanisole (BHA)
Streptococcus Sobrinus
  MIC: < 20 µM
[6]
  effect on resting (nonreplicating) HFF cells: no effect on the resting cells was observed
[1]
  concentration that inhibited HFF cell growth: 0.009 mM/L
Trichophyton rubrum
  minimal inhibitory concentration: 2.33 mM/L
Trichophyton tonsuras
  minimal inhibitory concentration: 23.3 mM/L
[7]
  minimal inhibitory concentration: 23.3 mM/L
Trichophyton violaceum
  minimal inhibitory concentration: 23.3 mM/L
Candida albicans
  minimal inhibitory concentration: 2.33 mM/L
Microsporum canis
  minimum inhibitory concentration: ≤ 0.233 mM/L
[2]
  concentration that inhibited BGM cell growth: 0.009 mM/L
Sprague Dawley rats; injection and two-week post-injection period
  weight or rate of weight gain vs control: no statistically significant difference in weight or rate of weight gain
Sprague Dawley rats; necropsy on 28th day
  microscopic examination of tissues vs control: no differences between the tissues
Sprague Dawley rats; sacrificed on 28th day
  weights of major organs vs control: no differences observed between the weights of major organs

## CN1CCN(CP(=O)(O)O)CCN(CP(=O)(O)O)CC1 [N-methyl-N′,N″-bis(dihydroxyphorylmethyl)-1,4,7-triazacyclononane]
[8]
  relative sensitivity of cancer cell groups: leukemia and colon cancer cells were more sensitive to the agent than were other cancer cells

## O=P(O)(O)CN1CCN(CP(=O)(O)O)CCN(CP(=O)(O)O)CC1 [sodium salt of N,N′,N″-tris-(dihydroxyphosphorylmethyl)-1,4,7-triazacyclononane]
Underarm odor; 30% aqueous solution in one axilla, control aqueous solution in the other
  subjective evaluation of underarm odor: less underarm odor in the treated axilla than in the control
Underarm odor; 30% aqueous solution, single application
  duration of decreased underarm odor after a single application: up to one week
monocyte
  concentration that inhibited monocyte penetration of Matrigel membranes: less than 10 microM
Pure MMP-2 enzyme
  IC50: < 10 µM
mice
  mice surviving for over 14 days: Over 50%
[9]
  LD50: > 4000 µmol/kg

## salts of N,N′,N″-tri(dihydroxyphosphoryl methyl)-1,4,7-triazacyclononane
[10]
  concentration that inhibited enzymatic action of MMP-2: less than 10 microM
[11]; before or after hypoxia/reperfusion injury
  concentration with no adverse effects on the heart: ≥ 7200 µM
[11]; ischemic/reperfused isolated working rat heart
  concentration in the perfusing medium effective in improving myocardial functional parameters and decreasing the incidence of ventricular fibrillation: ≤ 0.1 mM
